According to patent US10689367B2, “Triazole pyridyl compounds as agonists of the APJ receptor” (AMGEN INC., priority 2016, dated 2020):

Target: human APJ receptor (Homo sapiens (Human), UniProt P35414)
Assay: [35S]GTPγS binding assay on membranes from CHO cells stably expressing human APJ receptor
Assay type: biochemical
Conditions: membranes of CHO cells stably expressing human APJ receptor, read-out: Activity hAPJ SPA EC50 IP
In short: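 [35S]GTPγS binding measured on membranes from CHO cells stably expressing FLAG-tagged human APJ, with GDP, MgCl2 and NaCl levels optimized beforehand. Incubation 90 min at RT, imager read-out; EC50 from non-linear regression, averaged over several independent experiments.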

Chain of human APJ receptor (P35414 whole entry): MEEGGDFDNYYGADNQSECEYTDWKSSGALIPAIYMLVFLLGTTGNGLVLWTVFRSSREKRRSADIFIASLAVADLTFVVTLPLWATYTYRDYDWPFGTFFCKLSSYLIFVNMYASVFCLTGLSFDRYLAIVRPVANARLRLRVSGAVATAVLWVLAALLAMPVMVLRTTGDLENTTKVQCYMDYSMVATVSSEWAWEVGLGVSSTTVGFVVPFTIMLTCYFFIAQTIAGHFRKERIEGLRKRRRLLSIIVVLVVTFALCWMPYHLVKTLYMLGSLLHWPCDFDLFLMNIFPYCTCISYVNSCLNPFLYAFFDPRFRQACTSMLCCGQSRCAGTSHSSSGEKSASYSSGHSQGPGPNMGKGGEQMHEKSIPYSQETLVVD

Question: Which EC50 does the source give for COc1cccc(-c2nnc(NS(=O)(=O)[C@@H](C)[C@H](OC)c3ncc(Cl)cn3)n2C[C@H]2CCCCO2)n1 (racemic) [Example 288.0, (1R,2S)-1-(5-chloropyrimidin-2-yl)-1-methoxy-N-(5-(6-methoxypyridin-2-yl)-4-(((R)-tetrahydro-2H-pyran-2-yl)methyl)-4H-1,2,4-triazol-3-yl)propane-2-sulfonamide or (1R,2S)-1-(5-chloropyrimidin-2-yl)-1-methoxy-N-(5-(6-methoxypyridin-2-yl)-4-(((S)-tetrahydro-2H-pyran-2-yl)methyl)-4H-1,2,4-triazol-3-yl)propane-2-sulfonamide] here?
Answer: 3.3 nM

Question: For CC[C@H](c1c(C)noc1C)n1c(NS(=O)(=O)[C@@H](C)[C@@H](OC(C)C)c2ncc(C)cn2)nnc1-c1cccc(OC)n1 (mixture of isomers) [Example 209.0, (1S,2S)-N-(4-((1R)-1-(3,5-dimethyl-1,2-oxazol-4-yl)propyl)-5-(6-methoxy-2-pyridinyl)-4H-1,2,4-triazol-3-yl)-1-(5-methyl-2-pyrimidinyl)-1-(2-propanyloxy)-2-propanesulfonamide and (1S,2S)-N-(4-((1S)-1-(3,5-dimethyl-1,2-oxazol-4-yl)propyl)-5-(6-methoxy-2-pyridinyl)-4H-1,2,4-triazol-3-yl)-1-(5-methyl-2-pyrimidinyl)-1-(2-propanyloxy)-2-propanesulfonamide], which EC50 is on record?
Answer: 14 nM

Question: For CC[C@H](c1c(C)noc1C)n1c(NS(=O)(=O)[C@@H](C)[C@H](C)c2ncc(Cl)cn2)nnc1-c1cccc(OC)n1 (mixture of isomers) [Example 210.0, (2S,3R)-3-(5-chloro-2-pyrimidinyl)-N-(4-((1R)-1-(3,5-dimethyl-1,2-oxazol-4-yl)propyl)-5-(6-methoxy-2-pyridinyl)-4H-1,2,4-triazol-3-yl)-2-butanesulfonamide and (2S,3R)-3-(5-chloro-2-pyrimidinyl)-N-(4-((1S)-1-(3,5-dimethyl-1,2-oxazol-4-yl)propyl)-5-(6-methoxy-2-pyridinyl)-4H-1,2,4-triazol-3-yl)-2-butanesulfonamide], which EC50 is on record?
Answer: 5.3 nM

Question: Which EC50 does the source give for COCC1(n2c(NS(=O)(=O)[C@@H](C)[C@H](OC)c3ncc(Cl)cn3)nnc2-c2cccc(OC)n2)CC1 [Example 4.0] here?
Answer: 0.16 nM

Question: COCC1(n2c(NS(=O)(=O)[C@@H](C)[C@H](C)c3cnc(C)cn3)nnc2-c2cccnc2)CC1 [Example 66.0] was tested. Which EC50 did it give?
Answer: 38 nM

Question: How did the EC50 turn out when COCC1(n2c(NS(=O)(=O)[C@@H](C)[C@H](OC)c3ncc(Cl)cn3)nnc2-c2cccc(OC)n2)CCC1 [Example 50.0] was run?
Answer: 0.46 nM

Question: CC[C@H]([C@@H]1CCCCO1)n1c(NS(=O)(=O)[C@@H](C)[C@H](OC)c2ncc(Cl)cn2)nnc1-c1cccc(OC)n1 (single isomer, unassigned) [Example 327.0] was tested. Which EC50 did it give?
Answer: 0.11 nM

Question: Which EC50 does the source give for COc1cccc(-c2nnc(NS(=O)(=O)[C@@H](C)[C@@H](OC(C)C)c3cnc(C)cn3)n2C2CC2)n1 [Example 123.0] here?
Answer: 5.6 nM

Question: COc1cccc(-c2nnc(NS(=O)(=O)[C@@H](C)[C@H](C)c3ncc(Cl)cn3)n2Cc2ccno2)n1 [Example 207.0, (2S,3R)-3-(5-chloro-2-pyrimidinyl)-N-(5-(6-methoxy-2-pyridinyl)-4-(1,2-oxazol-5-ylmethyl)-4H-1,2,4-triazol-3-yl)-2-butanesulfonamide] was tested. Which EC50 did it give?
Answer: 30 nM

Tested on: heart failure rats
Assay: Cardiac function in heart failure rats in vivo with ACE inhibitor captopril, with or without APJ agonist
Design: species or system rat
Conditions: captopril alone, acute settings
Description: The interaction between […] (ACE2) and Apelin biology is complicated. To investigate the interaction between the Apelin-APJ and ACE signalling pathways, we examined the improvement in cardiac function with APJ small molecule agonists in the presence of ACE inhibitor captopril in heart failure rats in vivo. […] However, in the presence of an APJ agonist, there was a shift in potency to the left with marked improvement in contractility and ejection fraction without changes in heart rate. These findings provide a new reference for the understanding of the regulation of ACE2 for the renin angiotensin aldosterone system (RAAS), independent of AT1R signaling and offer new potential drug targets for the treatment of diseases such as hypertension and heart failure. This work clearly establishes that combination of an agonist of the APJ receptor with an ARB such as losartan and/or with an ACE inhibitor such as captopril which may play an important role in providing greater efficacy in treating heart failure patients, for example in improving contractility and ejection fraction without changing the heart rate.

Question: Which “improvement in contractility or ejection fraction” value does the source give for C[C@H](CS)C(=O)N1CCC[C@H]1C(=O)O [Captopril, captopril] here?
Answer: does not show a marked improvement in contractility or ejection fraction
